The term IC50 denotes the concentration that inhibits the measured activity by half. Higher therefore signals weaker potency. What is called melting point is the temperature of the solid-liquid transition.

Results on eleven compounds are retold here after patent US6706744B2, “Glucagon antagonists/inverse agonists” (Novo Nordisk A/S, priority 2000, dated 2004).

One data set addresses T1, human glucagon receptor (Homo sapiens, UniProt P47871).
T1 construct: expressed in transfected cells; host or cells: BHK (baby hamster kidney) cells; membrane preparation
In words: Glucagon binding assay (II). Conditions: membranes of BHK cells transfected with human glucagon receptor; 125I-glucagon tracer; SPA. As to the method:
Glucagon Binding Assay (II)
BHK (baby hamster kidney cell line) cells are transfected with the human glucagon receptor and a membrane preparation of the cells is prepared. Wheat Germ Agglutinin derivatized SPA beads containing a scintillant (WGA beads) (Amersham) bound the membranes. ^125I-glucagon bound to human glucagon receptor in the membranes and excited the scintillant in the WGA beads to light emission. Glucagon or samples binding to the receptor competed with ^125I-glucagon.
(§1) All steps in the membrane preparation are kept on ice or performed at 4° C. BHK cells are harvested and centrifuged. The pellet is resuspended in homogenisation buffer (25 mM HEPES, pH=7.4, 2.5 mM CaCl2, 1.0 mM MgCl2, 250 mg/l bacitracin, 0, 1 mM Pefabloc), homogenised 2×10 sec using Polytron 10-35 homogenizer (Kinematica) and added the same amount of homogenisation buffer as used for resuspension. After centrifugation (15 min at 2000×g) the supernatant is transferred to cold centrifuge tubes and centrifuged for 45 min at 40.000×g. The pellet is resuspended in homogenisation buffer, homogenised 2×10 sec (Polytron) and additional homogenisation buffer is added. The suspension is centrifuged for 45 min at 40.000×g and the pellet is resuspended in resuspension buffer (25 mM HEPES, pH=7.4, 2.5 mM CaCl2, 1.0 mM MgCl2) and homogenised 2×10 sec. (Polytron). The protein concentration is normally around 1.75 mg/ml. Stabilisation buffer (25 mM HEPES, pH=7.4, 2.5 mM CaCl2, 1.0 mM MgCl2, 1% bovine serum albumin, 500 mg/l bacitracin, 2.5 M sucrose) is added and the membrane preparation is stored at −80° C.
The glucagon binding assay is carried out in opti plates (Polystyrene Microplates, Packard). 50 μL assay buffer (25 mM HEPES, pH=7.5, 2.5 mM CaCl2, 1.0 mM MgCl2, 0.003% Tween-20, 0.005% bacitracin, 0.05% sodium azide) and 5 μl glucagon or test compound (in DMSO) are added to each well. 50 μl tracer (^125I-porcine glucagon, 50.000 cpm) and 50 μl membranes (7.5 μg) containing the human glucagon receptor are then added to the wells. Finally 50 μl WGA beads containing 1 mg beads are transferred to the well. The opti plates are incubated for 4 hours on a shaker and then settled for 8-48 hours. The opti plates are counted in a Topcounter. Non-specific binding is determined with 500 nM of glucagon.

For a further data set, the target named is T2, human GIP receptor (Homo sapiens, UniProt P48546).
T2 construct: expressed in transfected cells; host or cells: BHK (baby hamster kidney) cells; membrane preparation
T2 sequence (P48546 22-466): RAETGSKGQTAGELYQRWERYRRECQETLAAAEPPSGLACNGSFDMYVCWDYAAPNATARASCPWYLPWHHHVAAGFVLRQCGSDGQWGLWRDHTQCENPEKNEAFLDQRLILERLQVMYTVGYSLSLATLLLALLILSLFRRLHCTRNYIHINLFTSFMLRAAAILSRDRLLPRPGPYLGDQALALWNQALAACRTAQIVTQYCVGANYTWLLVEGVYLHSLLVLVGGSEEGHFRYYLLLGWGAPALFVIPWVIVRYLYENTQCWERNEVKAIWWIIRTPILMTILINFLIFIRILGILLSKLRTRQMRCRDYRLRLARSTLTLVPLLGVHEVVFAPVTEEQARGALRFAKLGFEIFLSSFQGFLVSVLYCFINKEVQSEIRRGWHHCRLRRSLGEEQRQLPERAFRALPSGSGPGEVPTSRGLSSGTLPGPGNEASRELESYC
In words: GIP binding assay. Conditions: membranes of BHK cells transfected with human GIP receptor; 125I-GIP tracer; SPA. As to the method:
BHK (baby hamster kidney cell line) cells are transfected with the human GIP receptor and a membrane preparation of the cells is prepared. Wheat Germ Agglutinin derivatized SPA beads containing a scintillant (WGA beads) (Amersham) bound the membranes. ^125I-GIP bound to human GIP receptor in the membranes and excited the scintillant in the WGA beads to light emission. GIP or samples binding to the receptor competed with ^125I-GIP.
as §1, with “0.1” for “0, 1”
The GIP binding assay is carried out in opti plates (Polystyrene Microplates, Packard). 50 μl assay buffer (25 mM HEPES, pH=7.5, 2.5 mM CaCl2, 1.0 mM MgCl2, 0.003% Tween-20, 0.005% bacitracin, 0.05% sodium azide) and 5 μl GIP or test compound (in DMSO) are added to each well. 50 μl tracer (^125I-porcine GIP, 50.000 cpm) and 50 μl membranes (20 μg) containing the human GIP receptor are then added to the wells. Finally 50 μl WGA beads containing 1 mg beads are transferred to the well. The opti plates are incubated for 3.5 hours on a shaker and then settled for 8-48 hours. The opti plates are counted in a Topcounter. Non-specific binding is determined with 500 nM of GIP.

T1 sequence (P47871 26-477): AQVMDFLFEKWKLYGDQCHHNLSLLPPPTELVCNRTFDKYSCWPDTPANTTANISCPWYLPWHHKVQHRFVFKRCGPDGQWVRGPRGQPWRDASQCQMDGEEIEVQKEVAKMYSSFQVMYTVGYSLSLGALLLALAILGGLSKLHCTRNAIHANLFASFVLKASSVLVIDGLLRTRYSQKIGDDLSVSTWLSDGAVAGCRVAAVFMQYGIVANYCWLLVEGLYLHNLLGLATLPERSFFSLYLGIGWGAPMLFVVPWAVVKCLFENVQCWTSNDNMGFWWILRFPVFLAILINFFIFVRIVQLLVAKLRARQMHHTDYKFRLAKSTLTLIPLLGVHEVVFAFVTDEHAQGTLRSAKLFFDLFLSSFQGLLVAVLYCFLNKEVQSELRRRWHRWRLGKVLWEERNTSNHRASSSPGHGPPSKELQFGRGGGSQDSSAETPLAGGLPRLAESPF

Take `O=C(O)CCNC(=O)c1ccc(CN(C(=O)Nc2cccc(Br)c2)c2ccc(C3=CCCCC3)cc2)cc1` [Example 2, 3-{4-[3-(3-Bromophenyl)-1-(4-cyclohex-1-enylphenyl)ureidomethyl]benzoylamino}propionic acid]: the values for the half-maximal inhibitory concentration (IC50) at human glucagon receptor and at human GIP receptor were 53 nM and 198 nM, respectively.

`O=C(O)CCNC(=O)c1ccc(CN(C(=O)Nc2cccc(C(F)(F)F)c2)c2ccc(C3CCCCC3)cc2)cc1` [Example 7, 3-{4-[1-(4-Cyclohexylphenyl)-3-(3-trifluoromethylphenyl)ureidomethyl]benzoylamino}propionic acid]: the half-maximal inhibitory concentration (IC50) on human glucagon receptor amounted to 29 nM; at human GIP receptor, 82 nM.

Regarding `O=C(O)CCNC(=O)c1ccc(CN(C(=O)Nc2cccc(OC(F)(F)F)c2)c2ccc(C3=CCCCC3)cc2)cc1` [Example 3, 3-{4-[3-(3-Trifluoromethoxyphenyl)-1-(4-cyclohex-1-enylphenyl)ureidomethyl]benzoylamino}propionic acid], the IC50 is 25 nM at human glucagon receptor and 34 nM on human GIP receptor.

Consider `N#Cc1cc(NC(=O)N(Cc2ccc(C(=O)NCCC(=O)O)cc2)c2ccc(C3=CCCCC3)cc2)cc(C(F)(F)F)c1` [Example 9, 3-{4-[3-(3-Cyano-5-trifluoromethylphenyl)-1-(4-cyclohex-1-enylphenyl)ureidomethyl]benzoyl-amino}propionic acid], for which the IC50 came out at 42 nM at human glucagon receptor and 122 nM on human GIP receptor.

In the case of `C[C@H](NC(=O)N(Cc1ccc(C(=O)NCCC(=O)O)cc1)c1ccc(C2CCCCC2)cc1)c1ccc(Cl)cc1` [Example 1, 3-{4-[3-[1(S)-(4-Chlorophenyl)ethyl]1-(4-cyclohexylphenyl)ureidomethyl]benzoylamino}propionic acid], the IC50 stood at 64 nM on human glucagon receptor and 644 nM at human GIP receptor.

`O=C(O)CCNC(=O)c1ccc(CN(C(=O)Nc2ccc(OC(F)(F)F)c(CO)c2)c2ccc(C3CCCCC3)cc2)cc1` [Example 10, 3-{4-[1-(4-Cyclohexylphenyl)-3-(3-hydroxymethyl-4-trifluoromethoxyphenyl)ureidomethyl]benzoylamino}propionic acid] had a melting point of 167.5 to 168.5 °C. At human glucagon receptor, this compound returned an IC50 of 49 nM. This compound also yielded an IC50 at human GIP receptor of 107 nM.

With `CS(=O)(=O)c1cc(NC(=O)N(Cc2ccc(C(=O)NCCC(=O)O)cc2)c2ccc(C3=CCCCC3)cc2)ccc1OC(F)(F)F` [Example 6, 3-{4-[1-(4-Cyclohexen-1-ylphenyl)-3-(3-methanesulfonyl-4-trifluoromethoxyphenyl)ureidomethyl]benzoylamino}propionic acid], the IC50 on human glucagon receptor was 9 nM; on human GIP receptor it was 177 nM.

As for `O=C(O)CCNC(=O)c1ccc(CN(C(=O)Nc2cccc(Br)c2)c2ccc(C3CCCCC3)cc2)cc1` [Example 5, 3-{4-[3-(3-Bromophenyl)-1-(4-Cyclohexylphenyl)ureidomethyl]benzoylamino}propionic acid], the IC50 came out at 42 nM on human glucagon receptor and 265 nM on human GIP receptor.

For `O=C(O)CCNC(=O)c1ccc(CN(C(=O)Nc2cc(F)cc(C(F)(F)F)c2)c2ccc(C3CCCCC3)cc2)cc1` [Example 4, 3-{4-[1-(4-Cyclohexylphenyl)-3-(3-fluoro-5-trifluoromethylphenyl)ureidomethyl]benzoylamino}propionic acid], the half-inhibitory concentration (IC50) on human glucagon receptor turned out to be 29 nM; at human GIP receptor, 90 nM.

For `O=C(O)CCNC(=O)c1ccc(CN(C(=O)Nc2ccc(OC(F)(F)F)c(CO)c2)c2ccc(C3=CCCCC3)cc2)cc1` [Example 11, 3-{4-[1-(4-Cyclohex-1-enylphenyl)-3-(3-hydroxymethyl-4-trifluoromethoxyphenyl)ureidomethyl]benzoylamino}propionic acid], the IC50 on human glucagon receptor was determined as 64 nM; on human GIP receptor, 152 nM.

In the case of `N#Cc1cc(NC(=O)N(Cc2ccc(C(=O)NCCC(=O)O)cc2)c2ccc(C3CCCCC3)cc2)cc(C(F)(F)F)c1` [Example 8, 3-{4-[3-(3-Cyano-5-trifluoromethylphenyl)-1-(4-cyclohexylphenyl)ureidomethyl]benzoyl-amino}propionic acid], the half-maximal inhibitory concentration (IC50) is 35 nM at human glucagon receptor and 76 nM at human GIP receptor.
